Earlier results, collected in patent US20110045130A1, “BIOACTIVE PEPTIDE PRODUCTION” (priority 2007, published 2011).

Assays:
[1] = target: angiotensin converting enzyme (ACE) (Homo sapiens, UniProt P12821); settings: in vitro effect on ACE activity; relatively low IC50 values
[2] = test system: spontaneously hypertensive rats; settings: tripeptides derived from lactic acid bacteria fermented milk

Sequence of angiotensin converting enzyme (ACE) (P12821 30-1306, species assumed): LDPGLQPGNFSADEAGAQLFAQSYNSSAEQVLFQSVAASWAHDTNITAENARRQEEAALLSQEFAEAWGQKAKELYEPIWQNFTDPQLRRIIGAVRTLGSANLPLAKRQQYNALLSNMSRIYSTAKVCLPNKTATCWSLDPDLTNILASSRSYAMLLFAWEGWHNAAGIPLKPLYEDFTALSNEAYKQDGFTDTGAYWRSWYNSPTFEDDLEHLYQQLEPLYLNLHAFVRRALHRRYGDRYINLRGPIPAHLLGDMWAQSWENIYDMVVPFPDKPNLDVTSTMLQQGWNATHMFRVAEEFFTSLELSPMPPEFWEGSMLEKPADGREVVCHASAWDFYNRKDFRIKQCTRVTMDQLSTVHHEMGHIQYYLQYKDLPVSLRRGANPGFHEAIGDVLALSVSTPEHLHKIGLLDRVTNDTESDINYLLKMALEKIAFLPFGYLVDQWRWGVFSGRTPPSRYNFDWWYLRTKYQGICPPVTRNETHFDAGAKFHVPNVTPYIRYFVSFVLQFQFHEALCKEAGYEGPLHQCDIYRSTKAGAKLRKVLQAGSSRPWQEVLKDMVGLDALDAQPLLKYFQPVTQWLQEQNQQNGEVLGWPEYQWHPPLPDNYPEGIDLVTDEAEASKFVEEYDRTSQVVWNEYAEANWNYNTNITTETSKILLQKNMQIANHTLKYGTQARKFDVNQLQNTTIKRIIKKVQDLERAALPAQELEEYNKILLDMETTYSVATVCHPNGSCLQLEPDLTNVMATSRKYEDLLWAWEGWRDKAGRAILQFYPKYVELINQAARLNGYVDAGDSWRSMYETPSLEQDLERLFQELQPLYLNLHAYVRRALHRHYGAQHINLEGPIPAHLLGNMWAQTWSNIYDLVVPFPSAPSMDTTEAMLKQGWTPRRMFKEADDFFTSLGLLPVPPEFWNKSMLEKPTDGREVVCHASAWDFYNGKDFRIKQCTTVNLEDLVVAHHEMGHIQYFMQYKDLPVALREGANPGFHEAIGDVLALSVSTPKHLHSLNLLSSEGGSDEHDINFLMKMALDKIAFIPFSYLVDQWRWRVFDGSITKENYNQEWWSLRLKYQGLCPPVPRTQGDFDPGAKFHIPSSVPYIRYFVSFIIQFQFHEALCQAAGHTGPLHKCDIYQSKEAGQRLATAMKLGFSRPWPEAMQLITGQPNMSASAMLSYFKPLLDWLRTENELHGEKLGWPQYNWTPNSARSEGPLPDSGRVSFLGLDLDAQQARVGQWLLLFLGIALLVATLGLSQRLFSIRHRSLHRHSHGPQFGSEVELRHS

| Substance | ACE inhibiting activity [1] | antihypertensive effects [2] |
| --- | --- | --- |
| Ile-Pro-Pro [IPP] | Strong ACE inhibiting activities | confirmed |
| Leu-Pro-Pro [LPP] | Strong ACE inhibiting activities | – |
| Val-Pro-Pro [VPP] | Strong ACE inhibiting activities | confirmed |
